What all share (assay): microbe, parasite or virus in culture
Holding throughout (design): agar dilution antibacterial assay, minimum inhibitory concentration

In one test the test system is Bacillus subtilis. As to conditions: 24 h. Here is the method: (§1) Antibacterial activity was determined by agar dilution method according to the method as described. […], […], Staphylococcus epidermidis, Staphylococcus aureus and Bacillus subtilis were used as the tested bacteria. After incubation for 24 h at 37 °C, the MICs were calculated (Table S3).

The next test relates to S. aureus. The note with it: Staphylococcus aureus, 24 h. The procedure: as §1
A further test deals with S. pyogenes. The note with it: Streptococcus pyogenes, 24 h. Here is the method: as §1
The subject of the next test is S. epidermidis. The note with it: Staphylococcus epidermidis, 24 h. Here is the method:
as §1

A further test relates to S. pneumoniae. The note with it: Streptococcus pneumoniae, 24 h. The procedure:
as §1

Structures are written as SMILES. Converted amounts (≈) assume the structure as drawn. Where two headings read alike, the source gives them in different places.

Turning to `CC=C(N=C=S)C(=O)OC1C(COC(C)=O)OC(C2(O)CC(=O)C(N)=C(C(=O)O)C2=O)C(O)C1OC1CC(OC)C(O)(C(C)OC(=O)C(C)CC)C(C)O1` (stereo not shown) [compound 3, 3], the MIC in the test with Bacillus subtilis (read-out: MIC 3) was determined as 0.1 µg/mL (≈ 0.127 µM); in the test on S. aureus (read-out: MIC 3), 0.1 µg/mL (≈ 0.127 µM); in the test on S. pyogenes (read-out: MIC 3) it was 0.025 µg/mL (≈ 0.0318 µM); in the test with S. epidermidis (read-out: MIC 3), 0.05 µg/mL (≈ 0.0635 µM); in the test with S. pneumoniae (read-out: MIC 3), 0.05 µg/mL (≈ 0.0635 µM).

For the compound `C/C=C(\N=C=S)C(=O)O[C@H]1[C@@H](O[C@H]2C[C@H](OC)[C@@](O)([C@H](C)OC(=O)C(C)C)[C@H](C)O2)[C@@H](O)[C@H]([C@@]2(O)CC(=O)C(=N)C(C(=O)O)=C2O)O[C@@H]1COC(C)=O` [compound 4, paulomycin B], the MIC in the test with Bacillus subtilis (read-out: MIC 4) stood at 0.1 µg/mL (≈ 0.129 µM); in the test with S. aureus (read-out: MIC 4) it was 0.1 µg/mL (≈ 0.129 µM); with S. pyogenes (read-out: MIC 4), 0.025 µg/mL (≈ 0.0324 µM); in the test with S. epidermidis (read-out: MIC 4), 0.05 µg/mL (≈ 0.0647 µM); in the test on S. pneumoniae (read-out: MIC 4), 0.05 µg/mL (≈ 0.0647 µM).

For the compound `CC=C(N=C=S)C(=O)OCC1OC(C2(O)CC(=O)C(N)=C(C(=O)O)C2=O)C(O)C(OC2CC(OC)C(O)(C(C)OC(=O)C(C)C)C(C)O2)C1O` (stereo not shown) [compound 8, 8], the MIC with Bacillus subtilis (read-out: MIC 8) is > 100 µg/mL; in the test with S. aureus (read-out: MIC 8) it was > 100 µg/mL; with S. pyogenes (read-out: MIC 8) it was > 50 µg/mL; in the test on S. epidermidis (read-out: MIC 8), > 100 µg/mL; with S. pneumoniae (read-out: MIC 8), > 100 µg/mL.

As to `CC=C(N=C=S)C(=O)OCC1OC(C2(O)CC(=O)C(N)=C(C(=O)O)C2=O)C(O)C(OC2CC(OC)C(O)(C(C)OC(=O)C(C)CC)C(C)O2)C1O` (stereo not shown) [compound 9, 9], the MIC with Bacillus subtilis (read-out: MIC 9) is > 100 µg/mL; in the test on S. aureus (read-out: MIC 9), > 100 µg/mL; in the test with S. pyogenes (read-out: MIC 9) it was > 50 µg/mL; in the test with S. epidermidis (read-out: MIC 9) it was > 100 µg/mL; in the test with S. pneumoniae (read-out: MIC 9) it was > 100 µg/mL.

Regarding `CC=C(N=C=S)C(=O)OCC1OC(C2(O)CC(=O)C(N)=C(C(=O)O)C2=O)C(O)C(OC2CC(OC)C(O)(C(C)=O)C(C)O2)C1O` (stereo not shown) [compound 10, 10], the MIC in the test with Bacillus subtilis (read-out: MIC 10), with S. aureus (read-out: MIC 10), in the test on S. pyogenes (read-out: MIC 10), in the test on S. epidermidis (read-out: MIC 10) and in the test on S. pneumoniae (read-out: MIC 10) was > 100 µg/mL each time.

For the origin of these results see paper PMC4753412, “Involvement of an octose ketoreductase and two acyltransferases in the biosynthesis of paulomycins” (Scientific Reports, 2016).
